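Following 48 hours of exposure in 96-well plates, responses at five concentrations were used to interpolate endpoints linearly. TGI is the concentration that stops growth completely.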
Columns and labels:
Assay in all cases: NCI anticancer screen, dose series, 48 h
A498 renal = tested on: A498 renal
OVCAR-5 ovarian = tested on: OVCAR-5 ovarian
TK-10 renal = tested on: TK-10 renal
HOP-62 NSCLC = tested on: HOP-62 NSCLC
UACC-62 melanoma = tested on: UACC-62 melanoma
COLO 205 colon = tested on: COLO 205 colon
KM12 colon = tested on: KM12 colon
RXF 393 renal = tested on: RXF 393 renal
UACC-257 melanoma = tested on: UACC-257 melanoma
NCI-H460 lung = tested on: NCI-H460 lung
IGROV1 ovarian = tested on: IGROV1 ovarian
RPMI-8226 leukemia = tested on: RPMI-8226 leukemia
PC-3 prostate = tested on: PC-3 prostate
NCI-H226 lung = tested on: NCI-H226 lung
SNB-75 CNS = tested on: SNB-75 CNS
MDA-N = tested on: MDA-N
HL-60(TB) leukemia = tested on: HL-60(TB) leukemia
MDA-MB-435 = tested on: MDA-MB-435
SK-OV-3 ovarian = tested on: SK-OV-3 ovarian
CAKI-1 renal = tested on: CAKI-1 renal
SK-MEL-28 melanoma = tested on: SK-MEL-28 melanoma
U251 CNS = tested on: U251 CNS
A549 NSCLC = tested on: A549 NSCLC
OVCAR-4 ovarian = tested on: OVCAR-4 ovarian
SR leukemia = tested on: SR leukemia
SK-MEL-2 melanoma = tested on: SK-MEL-2 melanoma
NCI-H522 lung = tested on: NCI-H522 lung
EKVX NSCLC = tested on: EKVX NSCLC
LOX IMVI melanoma = tested on: LOX IMVI melanoma
T-47D breast = tested on: T-47D breast
HCT-15 colon = tested on: HCT-15 colon
K-562 leukemia = tested on: K-562 leukemia
SK-MEL-5 melanoma = tested on: SK-MEL-5 melanoma
HCC-2998 colon = tested on: HCC-2998 colon
SF-295 CNS = tested on: SF-295 CNS
786-0 renal = tested on: 786-0 renal
SW-620 colon = tested on: SW-620 colon
HT29 colon = tested on: HT29 colon
HCT-116 colon = tested on: HCT-116 colon
SNB-19 CNS = tested on: SNB-19 CNS
SF-539 CNS = tested on: SF-539 CNS
MALME-3M melanoma = tested on: MALME-3M melanoma
OVCAR-8 ovarian = tested on: OVCAR-8 ovarian
HS 578T breast = tested on: HS 578T breast
SF-268 CNS = tested on: SF-268 CNS
SN12C renal = tested on: SN12C renal
NCI/ADR-RES ovarian = tested on: NCI/ADR-RES ovarian
MDA-MB-231 breast = tested on: MDA-MB-231 breast
DU-145 prostate = tested on: DU-145 prostate
NCI-H23 lung = tested on: NCI-H23 lung
M14 melanoma = tested on: M14 melanoma
ACHN renal = tested on: ACHN renal
OVCAR-3 ovarian = tested on: OVCAR-3 ovarian
CCRF-CEM leukemia = tested on: CCRF-CEM leukemia
MCF7 breast = tested on: MCF7 breast
MOLT-4 leukemia = tested on: MOLT-4 leukemia
UO-31 renal = tested on: UO-31 renal

Measured: TGI

N#CC(=N)c1ncn(CCO)c1NC(=O)C(F)(F)F
not listed: MCF7 breast | MOLT-4 leukemia | UO-31 renal
> 100 µM: all other assays above

COC(=O)C1=C2SCc3ccc(cc3)CSC3=C(C(=O)OC)SC(=C(S2)S1)S3
9.51 µM: HL-60(TB) leukemia
not listed: OVCAR-5 ovarian | IGROV1 ovarian | SR leukemia | NCI-H522 lung | EKVX NSCLC | LOX IMVI melanoma | HCT-15 colon | HT29 colon | SF-539 CNS | MALME-3M melanoma | OVCAR-8 ovarian | HS 578T breast | SF-268 CNS | NCI/ADR-RES ovarian | NCI-H23 lung | CCRF-CEM leukemia
> 100 µM: all other assays above

From PubChem BioAssay (NCI)
